| melting point | SMILES |
| --- | --- |
| 169 to 170 °C | Cc1c(CNCC(C)(C)C)n(C)c2ccc(NC(=O)c3ccc(OCC4CC4)cc3)cc12 [Example 41, 4-(cyclopropylmethoxy)-N-(2-{[(2,2-dimethylpropyl)amino]methyl}-1,3-dimethyl-1H-indol-5-yl)benzamide] |
| 210 °C | Cc1c(NC(=O)c2ccc(OC[C@@H]3CCCO3)cc2)ccc2c1cc(CN1CCC(C)(O)CC1)n2C [Example 58, N-{2-[(4-hydroxy-4-methylpiperidin-1-yl)methyl]-1,4-dimethyl-1H-indol-5-yl}-4-[(2S)-tetrahydrofuran-2-ylmethoxy]benzamide] |
| 132 to 134 °C | Cc1c(CNCC2CCOCC2)n(C)c2c(F)c(NC(=O)c3ccc(OC[C@@H]4CCCO4)cc3)ccc12 [Example 113, N-(7-fluoro-1,3-dimethyl-2-{[(tetrahydro-2H-pyran-4-ylmethyl)amino]methyl}-1H-indol-6-yl)-4-[(2S)-tetrahydrofuran-2-ylmethoxy]benzamide] |
| 139 °C | Cn1c(CNC[C@@H]2CCCO2)cc2cc(NC(=O)c3ccc(OCC4CC4)cc3)ccc21 [Example 11, 4-(cyclopropylmethoxy)-N-[1-methyl-2-({[(2S)-tetrahydrofuran-2-ylmethyl]amino}methyl)-1H-indol-5-yl]benzamide] |
| 183 °C | Cc1c(NC(=O)c2ccc(OC[C@@H]3CCCO3)cc2)ccc2cc(CNCC(C)C)n(C)c12 [Example 85, N-(1,7-dimethyl-2-{[(2-methylpropyl)amino]methyl}-1H-indol-6-yl)-4-[(2S)-tetrahydrofuran-2-ylmethoxy]benzamide] |
| 178 to 179 °C | Cc1c(CNCC(C)(C)C)[nH]c2c(C)c(NC(=O)c3ccc(OC[C@@H]4CCCO4)cc3)ccc12 [Example 98, N-(2-{[(2,2-dimethylpropyl)amino]methyl}-3,7-dimethyl-1H-indol-6-yl)-4-[(2S)-tetrahydrofuran-2-ylmethoxy]benzamide] |
| 134 to 135 °C | Cc1c(CNCC(C)C)[nH]c2c(F)c(NC(=O)c3ccc(OC[C@@H]4CCCO4)cc3)ccc12 [Example 104, N-(7-fluoro-2-{[(2-methylpropyl)amino]methyl}-3-methyl-1H-indol-6-yl)-4-[(2S)-tetrahydrofuran-2-ylmethoxy]benzamide] |
| 186 to 188 °C | Cc1c(CNCC(C)(C)O)n(C)c2c(C)c(NC(=O)c3ccc(OC[C@@H]4CCCO4)cc3)ccc12 [Example 108, N-(2-{[(2-hydroxy-2-methylpropyl)amino]methyl}-1,3,7-trimethyl-1H-indol-6-yl)-4-[(2S)-tetrahydrofuran-2-ylmethoxy]benzamide] |
| 225 °C | CCCNCc1cc2c(C)c(NC(=O)c3ccc(OC[C@@H]4CCCO4)cc3)ccc2n1C [Example 57, N-{1,4-dimethyl-2-[(propylamino)methyl]-1H-indol-5-yl}-4-[(2S)-tetrahydrofuran-2-ylmethoxy]benzamide] |
| 124 °C | Cc1c(NC(=O)c2ccc(OC[C@@H]3CCCO3)cc2F)ccc2c1cc(CN[C@H]1CC[C@](C)(O)CC1)n2C [Example 59, 2-fluoro-N-(2-{[(trans-4-hydroxy-4-methylcyclohexyl)amino]methyl}-1,4-dimethyl-1H-indol-5-yl)-4-[(2S)-tetrahydrofuran-2-ylmethoxy]benzamide] |
| 184 to 185 °C | Cc1c(CNCC2CCOCC2)[nH]c2c(C)c(NC(=O)c3ccc(OC[C@@H]4CCCO4)cc3)ccc12 [Example 97, N-(3,7-dimethyl-2-{[(tetrahydro-2H-pyran-4-ylmethyl)amino]methyl}-1H-indol-6-yl)-4-[(2S)-tetrahydrofuran-2-ylmethoxy]benzamide] |
| 185 to 186 °C | Cc1c(CNCC2CCOCC2)n(C)c2ccc(NC(=O)c3ccc(OC[C@@H]4CCCO4)cc3)cc12 [Example 35, N-(1,3-dimethyl-2-{[(tetrahydro-2H-pyran-4-ylmethyl)amino]methyl}-1H-indol-5-yl)-4-[(2S)-tetrahydrofuran-2-ylmethoxy]benzamide] |
| 154 °C | Cn1c(CNC2CCC(C)(O)CC2)cc2cc(NC(=O)c3ccc(OC[C@@H]4CCCO4)cc3)ccc21 (stereo partly drawn) [Example 18, N-(2-{[(trans-4-hydroxy-4-methylcyclohexyl)amino]methyl}-1-methyl-1H-indol-5-yl)-4-[(2S)-tetrahydrofuran-2-ylmethoxy]benzamide] |
| 142 to 143 °C | Cc1c(CNCC(C)C)n(C)c2ccc(NC(=O)c3ccc(OCC4CC4)cc3)cc12 [Example 39, 4-(cyclopropylmethoxy)-N-(2-{[(2-methylpropyl)amino]methyl}-1,3-dimethyl-1H-indol-5-yl)benzamide] |
| 202 to 204 °C | Cc1c(NC(=O)c2ccc(C#CC3(O)CCC3)cc2)ccc2cc(CNCC3CCOCC3)n(C)c12 [Example 94, N-(1,7-dimethyl-2-{[(tetrahydro-2H-pyran-4-ylmethyl)amino]methyl}-1H-indol-6-yl)-4-[(1-hydroxycyclobutyl)ethynyl]benzamide] |
| 181 to 182 °C | Cn1c(CN[C@H]2CC[C@](C)(O)CC2)cc2cc(NC(=O)c3ccc(OCC4CCOC4)cc3)ccc21 (stereo partly drawn) [Example 24, N-(2-{[(trans-4-hydroxy-4-methylcyclohexyl)amino]methyl}-1-methyl-1H-indol-5-yl)-4-(tetrahydrofuran-3-ylmethoxy)benzamide] |
| 232 to 233 °C | Cc1c(NC(=O)c2ccc(C#CC3(O)CCC3)cc2)ccc2cc(CNCC(C)(C)C)n(C)c12 [Example 93, N-(2-{[(2,2-dimethylpropyl)amino]methyl}-1,7-dimethyl-1H-indol-6-yl)-4-[(1-hydroxycyclobutyl)ethynyl]benzamide] |
| 191 °C | Cc1c(CN[C@H]2CC[C@](C)(O)CC2)n(C)c2ccc(NC(=O)c3ccc(OCC4CC4)cc3)cc12 [Example 42, 4-(cyclopropylmethoxy)-N-(2-{[(trans-4-hydroxy-4-methylcyclohexyl)amino]methyl}-1,3-dimethyl-1H-indol-5-yl)benzamide] |
| 172 to 173 °C | Cc1c(CN[C@H]2CC[C@](C)(O)CC2)n(C)c2ccc(NC(=O)c3ccc(OC[C@@H]4CCCO4)cc3)cc12 [Example 38, N-(2-{[(trans-4-hydroxy-4-methylcyclohexyl)amino]methyl}-1,3-dimethyl-1H-indol-5-yl)-4-[(2S)-tetrahydrofuran-2-ylmethoxy]benzamide] |
| 186 °C | Cc1c(NC(=O)c2ccc(C#CC3(O)CC3)cc2)ccc2cc(CNCC(C)C)n(C)c12 [Example 90, N-(1,7-dimethyl-2-{[(2-methylpropyl)amino]methyl}-1H-indol-6-yl)-4-[(1-hydroxycyclopropyl)ethynyl]benzamide] |
| 152 to 155 °C | Cc1c(NC(=O)c2ccc(OCC3CC3)cc2)ccc2cc(CN3CCC(C)(O)CC3)n(C)c12 [Example 80, 4-(cyclopropylmethoxy)-N-{2-[(4-hydroxy-4-methylpiperidin-1-yl)methyl]-1,7-dimethyl-1H-indol-6-yl}benzamide] |
| 182 to 183 °C | Cc1c(NC(=O)c2ccc(C#CC3(O)CC3)cc2)ccc2cc(CNCC(C)(C)C)n(C)c12 [Example 91, N-(2-{[(2,2-dimethylpropyl)amino]methyl}-1,7-dimethyl-1H-indol-6-yl)-4-[(1-hydroxycyclopropyl)ethynyl]benzamide] |

— US8642770B2, “Indole derivative” (Takeda Pharmaceutical Company Limited, priority 2010, dated 2014)
